The results in this text go back to US9434780B2, “Process for preparing human relaxin-2” (Relaxera Pharma GmbH & Co. KG i.G., priority 2011, dated 2016).

In one data set the test system is human THP-1 cells. Description: cAMP assay in human THP-1 cells. It counts as cell-based. To be noted: FIG. 6, compared with recombinant relaxin-2.
The target in another data set is T1, receptor RXFP1 (Homo sapiens, UniProt Q9HBX9).
T1 construct: expressed in transfected cells; host or cells: HEK-293T
T1 sequence (Q9HBX9 1-757): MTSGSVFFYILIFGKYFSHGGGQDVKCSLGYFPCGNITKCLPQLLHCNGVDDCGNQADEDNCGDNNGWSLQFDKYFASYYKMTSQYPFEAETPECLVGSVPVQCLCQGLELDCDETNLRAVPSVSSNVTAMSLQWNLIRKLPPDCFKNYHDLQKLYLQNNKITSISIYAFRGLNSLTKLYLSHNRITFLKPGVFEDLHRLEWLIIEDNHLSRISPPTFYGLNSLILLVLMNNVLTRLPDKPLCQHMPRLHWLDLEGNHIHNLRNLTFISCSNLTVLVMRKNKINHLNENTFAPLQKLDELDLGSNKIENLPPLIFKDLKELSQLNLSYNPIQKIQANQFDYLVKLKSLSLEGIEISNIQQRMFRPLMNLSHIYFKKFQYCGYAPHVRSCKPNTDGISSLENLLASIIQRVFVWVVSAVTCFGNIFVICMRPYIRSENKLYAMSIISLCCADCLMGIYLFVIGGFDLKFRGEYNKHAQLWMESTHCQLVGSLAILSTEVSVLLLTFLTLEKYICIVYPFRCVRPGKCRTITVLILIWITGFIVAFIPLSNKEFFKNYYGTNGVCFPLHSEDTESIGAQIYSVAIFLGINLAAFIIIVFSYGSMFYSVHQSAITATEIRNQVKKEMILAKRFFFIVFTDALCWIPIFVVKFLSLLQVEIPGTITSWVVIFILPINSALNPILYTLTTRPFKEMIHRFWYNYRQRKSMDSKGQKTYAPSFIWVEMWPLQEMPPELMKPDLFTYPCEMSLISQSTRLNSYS
Description: displacement of europium-labeled relaxin-2 in HEK-293T cells expressing RXFP1. It counts as binding. To be noted: HEK-293T cells expressing natural receptor RXFP1; compared with recombinant human relaxin-2.

The subject of another data set is cardiac fibroblasts. As to the kind of experiment: cell model of myocardial hypertrophy. Format: cell-based. To be noted: inhibition of cardiac fibroblast differentiation into myofibroblasts and of growth factor secretion; compared with recombinant. The text has this: In this model, relaxin inhibits the differentiation of cardiac fibroblasts into myofibroblasts and the secretion of growth factors by these cells (Dschietzig et al., 2006).

The next data set concerns cell models. Description: studies on cell models (bioassays). Format: cell-based. To be noted: compared with recombinant peptide.
A short description of data set [1]: storage stability of lyophilized relaxin-2. Format: physicochemical. To be noted: 4° C., stored for several months, compared with fresh material. The procedure:
The product is lyophilized for storage and stored at −20° C. The high stability of the preparation of highly pure relaxin-2 in lyophilized form at a temperature of 4° C. has been proven by corresponding analytics, in which fresh material was compared with material stored for several months.

Where no end group is shown, it is not given here.

“recombinant human relaxin-2: recombinantly prepared human relaxin-2 used as comparator (chain 1 QLYSALANKCCHVGCTKRSLARFC; chain 2 DSWMEEVIKLCGRELVRAQIAICGMSTWS; not fully specified; ends and bridges not checked) [reference compound]”: the “activity in cAMP assay” value in the data set on human THP-1 cells was “equivalent bioactivities”.

For “AZ02: batch of relaxin-2 prepared by chemical synthesis (chain 1 ELYSALANKCCHVGCTKRSLARFC; chain 2 DSWMEEVIKLCGRELVRAQIAICGMSTWS; non-natural residues)”, the “activity in cAMP assay” value in the data set with human THP-1 cells is on record as “comparable to that of the recombinantly prepared relaxin-2”.

Consider “human relaxin-2 [synthetic human relaxin-2]”, for which the “potency in displacing europium-labeled relaxin-2” value with receptor RXFP1 was “same potency as recombinant human relaxin-2”. Moreover, the “activity in cAMP assay” value in the data set with human THP-1 cells is on record as “equivalent bioactivities”. Besides, in the data set on cardiac fibroblasts, the “potency in cell model of myocardial hypertrophy” value is on record as “as potent as recombinant human relaxin-2”. Also, the “effect on cell models” value in the data set on cell models is given as “excellent effect, comparable to that of the recombinant peptide”. In addition, the “stability in lyophilized form” value in data set [1] is “only minor amounts of metabolites appear”.
